Laboratory results: patent US20240174673A1, “Spirocycle Containing Pyridine Compounds” (Protego Biopharma, Inc., priority 2022, published 2024)

System: Recombinant amyloidogenic full length light chain protein WIL-FL T46L
Assay: Differential Scanning Fluorimetry (thermal shift) assay
Type: binding
Conditions: WIL-FL T46L protein and compound incubated at RT for 30 min before dye; compared to vehicle
Method: Differential Scanning Fluorimetry Assay
The stabilization effects the compounds have on the immunoglobulin light chain protein was quantitively measured using a thermal shift assay. Recombinant amyloidogenic full length light chain protein WIL-FL T46L was produced in E. coli, purified, and used in the assay. The Thermal Shift Protein Stability Kit from Biotium was used and the assay was done in 96-well Plates following the manufacturer's instructions. The protein and compounds were incubated at RT for 30 min before adding the dye and subjected to the thermal shift assay. The thermal stability (Tm) of each sample was then determined using standard curve fitting methods and compared to vehicle. Data are expressed as temperature shift: [Tm]compound−[Tm]vehicle.
The compounds provided herein induce shifts in the ranges below: • 0-0.5° C.=* • >0.5-1° C.=** • >1-1.5° C.=*** • >1.5-2.5° C.=**** • >2.5° C.=*****

Compound	DSF temperature shift: [Tm]compound−[Tm]vehicle
C[C@H](COc1cnc(C(=O)NCCN2CC3(CCN(c4nccn5ccnc45)CC3)NC2=O)c(Cl)c1)c1ccccc1 (stereo in doubt) [Compound 13, 3-chloro-N-(2-(8-(imidazo[1,2-a]pyrazin-8-yl)-2-oxo-1,3,8-triazaspiro[4.5]decan-3-yl)ethyl)-5-(2-phenylpropoxy)picolinamide]	***** (>2.5° C.=*****)
C[C@H](COc1cnc(C(=O)NCCN2CC3(CCN(c4ccc(C(=O)O)nn4)CC3)NC2=O)c(Cl)c1)c1ccccc1 [Compound 21]	** (>0.5-1° C.=**)
Cc1cc(N2CC[C@](C)(c3ccccc3)C2)cnc1C(=O)NCCN1CC2(CCN(c3nccn4ccnc34)CC2)NC1=O (stereo in doubt) [Compound 5, N-(2-(8-(imidazo[1,2-a]pyrazin-8-yl)-2-oxo-1,3,8-triazaspiro[4.5]decan-3-yl)ethyl)-3-methyl-5-(3-methyl-3-phenylpyrrolidin-1-yl)picolinamide]	***** (>2.5° C.=*****)
C[C@H](COc1cnc(C(=O)NCCN2CC3(CCN(c4cnccn4)CC3)NC2=O)c(Cl)c1)c1ccccc1 [Compound 24]	**** (>1.5-2.5° C.=****)
Cc1cc(N2CC[C@@](C)(c3ccccc3)C2)cnc1C(=O)NCCN1CC2(CCN(c3nccn4ccnc34)CC2)NC1=O [Compound 6]	**** (>1.5-2.5° C.=****)
C[C@H](COc1cnc(C(=O)NCCN2CC3(CCN(c4nccn5cncc45)CC3)NC2=O)c(Cl)c1)c1ccccc1 [Compound 23]	***** (>2.5° C.=*****)
C[C@H](COc1cnc(C(=O)NCCN2CC3(CCN(c4cnc(C(=O)O)c(F)c4)CC3)NC2=O)c(Cl)c1)c1ccccc1 [Compound 20]	** (>0.5-1° C.=**)
Cc1cc(N2CCC(C)(c3ccccc3)C2)cnc1C(=O)NCCN1CC2(CCNCC2)NC1=O (stereo not shown) [Compound 2, 3-methyl-5-(3-methyl-3-phenylpyrrolidin-1-yl)-N-(2-(2-oxo-1,3,8-triazaspiro[4.5]decan-3-yl)ethyl)picolinamide]	**** (>1.5-2.5° C.=****)
CCOC(=O)c1ccc(N2CCC3(CC2)CN(CCNC(=O)c2ncc(OC[C@@H](C)c4ccccc4)cc2Cl)C(=O)N3)cn1 [Compound 15]	*** (>1-1.5° C.=***)
Cc1cc(N2CCC(C)(c3ccccc3)C2)cnc1CCN1C(=O)NC2(CCN(c3ncccn3)CC2)C1=O (stereo not shown) [Compound 26]	* (0-0.5° C.=*)
C[C@]1(c2ccccc2)CCN(c2cnc(C(=O)NCCN3CC4(CCN(c5nccn6ccnc56)CC4)NC3=O)c(C(F)(F)F)c2)C1 [Compound 8]	**** (>1.5-2.5° C.=****)
CC[C@]1(c2ccccc2)CCN(c2cnc(C(=O)NCCN3CC4(CCN(c5nccn6cnnc56)CC4)NC3=O)c(Cl)c2)C1 [Compound 11]	***** (>2.5° C.=*****)
CC[C@]1(c2ccccc2)CCN(c2cnc(C(=O)NCCN3CC4(CCN(c5ccnc(C(=O)NC)c5)CC4)NC3=O)c(Cl)c2)C1 [Compound 16]	* (0-0.5° C.=*)
CC(=O)N1CCC2(CC1)CN(CCNC(=O)c1ncc(N3CC[C@](C)(c4ccccc4)C3)cc1C)C(=O)N2 [Compound 25]	**** (>1.5-2.5° C.=****)
C[C@]1(c2ccccc2)CCN(c2cnc(C(=O)NCCN3CC4(CCN(c5nccn6cnnc56)CC4)NC3=O)c(Cl)c2)C1 [Compound 9]	***** (>2.5° C.=*****)
CC[C@]1(c2ccccc2)CCN(c2cnc(C(=O)NCCN3CC4(CCN(c5nccn6ccnc56)CC4)NC3=O)c(Cl)c2)C1 [Compound 10]	***** (>2.5° C.=*****)
C[C@H](COc1cnc(C(=O)NCCN2CC3(CCN(c4ccc(C(=O)O)nc4)CC3)NC2=O)c(Cl)c1)c1ccccc1 [Compound 22]	*** (>1-1.5° C.=***)
COC(=O)c1ncc(N2CCC3(CC2)CN(CCNC(=O)c2ncc(OC[C@@H](C)c4ccccc4)cc2Cl)C(=O)N3)cc1F [Compound 18]	** (>0.5-1° C.=**)
C[C@H](COc1cnc(C(=O)NCCN2CC3(CCNCC3)NC2=O)c(Cl)c1)c1ccccc1 [Compound 12]	*** (>1-1.5° C.=***)
Cc1cc(N2CC[C@](C)(c3ccccc3)C2)cnc1C(=O)NCCN1CC2(CCN(c3nccn4cnnc34)CC2)NC1=O [Compound 4]	***** (>2.5° C.=*****)
Cc1cc(N2CC[C@](C)(c3ccccc3)C2)cnc1C(=O)NCCN1CC2(CCN(c3nccn4cncc34)CC2)NC1=O [Compound 3]	***** (>2.5° C.=*****)
Cc1cc(N2CCC(C)(c3ccccc3)C2)cnc1C(=O)NCCN1CC2(CCN(c3nccn4ccnc34)CC2)NC1=O (stereo not shown) [Compound 14]	***** (>2.5° C.=*****)
C[C@]1(c2ccccc2)CCN(c2cnc(C(=O)NCCN3CC4(CCN(c5nccn6ccnc56)CC4)NC3=O)c(Cl)c2)C1 [Compound 7, 3-chloro-N-(2-(8-(imidazo[1,2-a]pyrazin-8-yl)-2-oxo-1,3,8-triazaspiro[4.5]decan-3-yl)ethyl)-5-(3-methyl-3-phenylpyrrolidin-1-yl)picolinamide]	***** (>2.5° C.=*****)
COC(=O)c1ccc(N2CCC3(CC2)CN(CCNC(=O)c2ncc(OC[C@@H](C)c4ccccc4)cc2Cl)C(=O)N3)nn1 [Compound 19]	**** (>1.5-2.5° C.=****)
CC[C@]1(c2ccccc2)CCN(c2cnc(C(=O)NCCN3CC4(CCN(c5cncnc5)CC4)NC3=O)c(Cl)c2)C1 [Compound 17]	** (>0.5-1° C.=**)
